Measured values: patent publication US20240000669A1, “NOVEL ENDODONTIC IRRIGANT” (INTER-MED, INC., priority 2020, published 2024)

Experiments:
[1] = Free available chlorine over time in 1:1 mixtures of chelating agent solutions with 3% NaOCl; assay type: physicochemical; conditions: for ability to maintain initial available chlorine, in words: after 1 hour, HEDP only above a pH of 11
[2] = Preliminary investigation of smear layer removal (calcium chelation)
Source text: (§1) A score of 1 indicates very little smear layer remaining, whereas a score of 5 indicates heavy smear layer present.

[3] = Organic tissue dissolution capacity of antiseptic and chelating solutions (mass loss of tissue samples, FIG. 4); conditions: 30 mL aqueous solution, 30 minutes
Procedure: Since the smear layer produced upon mechanical debridement of infected dental hard tissues includes both organic and inorganic dentin components, an investigation was conducted to determine the organic tissue dissolution capacity of various antiseptics and chelating solutions that are commonly used in dentistry and medical applications. For this purpose, soft tissue samples were incubated in aqueous solutions containing the agents to be studied and the mass loss of the tissue samples was measured. The results are collected in FIG. 4, where the average mass loss is given as a percentage fraction of the initial weight. FIG. 4 illustrates the mass loss (Mean %) of tissue samples incubated in 30 mL of aqueous solutions of various agents after 30 minutes. […] It can be seen that high concentrations of NaOCl along with the addition of surfactants (anionic and nonionic) tended to increase the tissue dissolution rate.

[4] = Mass loss of tissue samples in sodium hypochlorite at different pH values (FIG. 6); conditions: 30 mL sodium hypochlorite, 30 minutes
Source text: The organic tissue dissolution capacity of NaOCl may be a function of free available chlorine in solution and a function of alkalinity. As pH increases to above […] the proportion of the hypochlorite anion (OCl^−) to hypochlorous acid (HOCl) dramatically increases. Below this pH, the concentration of hypochlorite anion decreases and the concentration of HOCl increases (see FIG. 5, which illustrates the chlorine speciation profile as a function of pH). […] However, as the concentration of the hypochlorite ions decreases, the tissue dissolution capacity also decreases (see FIG. 6, which illustrates mass loss of tissue samples incubated in 30 mL of sodium hypochlorite at different pH values after 30 minutes.). In certain aspects of the invention, the medicament comprises HOCl and OCl— and has a pH between 8 and 10.

[5] = Smear layer removal from instrumented root canals (smear layer score); conditions: score 1 = very little smear layer remaining, 5 = heavy smear layer present
Source text: as §1

O=C(O)CCC(CC(=O)O)(C(=O)O)P(=O)(O)O (stereo not drawn) [PBTC, 2-phosphonobutane-1,2,4,-tricarboxylic Acid]
ability to maintain initial available chlorine, in words [1]: able to maintain most of their initial available chlorine

O=P(O)(O)O[C@H]1[C@H](OP(=O)(O)O)[C@@H](OP(=O)(O)O)[C@H](OP(=O)(O)O)[C@@H](OP(=O)(O)O)[C@H]1OP(=O)(O)O [PA, phytic acid (C6H6[OPO(OH)2]6)]
ability to maintain initial available chlorine, in words [1]: able to maintain most of their initial available chlorine
calcium chelator strength, in words [2]: relatively weak calcium chelators

CC(O)(P(=O)(O)O)P(=O)(O)O [HEDP, 1-hydroxyethylidene-1,1-diphosphonic acid]
Free Available Chlorine Remaining Post Mix (hours): 0 ([1]; 0 h, HEDP 15% at pH 11.1, 1:1 mix with 3% NaOCl): 100%
Free Available Chlorine Remaining Post Mix (hours): 1 ([1]; 1 h, HEDP 15% at pH 11.1, 1:1 mix with 3% NaOCl): 80%
Free Available Chlorine Remaining Post Mix (hours): 4 ([1]; 4 h, HEDP 15% at pH 11.1, 1:1 mix with 3% NaOCl): 40%
Free Available Chlorine Remaining Post Mix (hours): 24 ([1]; 24 h, HEDP 15% at pH 11.1, 1:1 mix with 3% NaOCl): 20%
ability to maintain initial available chlorine, in words [1]: able to maintain most of their initial available chlorine

O=P1([O-])OP(=O)([O-])OP(=O)([O-])OP(=O)([O-])OP(=O)([O-])OP(=O)([O-])O1.[Na+].[Na+].[Na+].[Na+].[Na+].[Na+] [SH, sodium hexametaphosphate]
ability to maintain initial available chlorine, in words [1]: able to maintain most of their initial available chlorine
calcium chelator strength, in words [2]: relatively weak calcium chelators

OCl [NaOCl, sodium hypochlorite]
mass loss of tissue samples (FIG. 4), in words [3]: largest mass loss
capability of dissolving organic tissue as a function of pH (FIG. 6), in words [4]: most capable of dissolving organic tissue at a pH above 8
residual smear layer score, Apical ([5]; apical root canal third): 3.5
residual smear layer score, Coronal ([5]; coronal root canal third): 3.2
residual smear layer score, Middle ([5]; middle root canal third): 3.6
